Test results as given in patent US11376298B2, “Composition comprising natural substances having healing, repellent and biocidal properties for the treatment and the cure of external wounds” (priority 2004, dated 2022).

Experiments:
[1] = EPA (USA) and EEA (UE); cited from earlier work
cheloid = assay: Cheloid therapy on wounds in the distal part of horse's limb; type: in vivo, horses; conditions: composition versus Salicylic acid therapy
Excerpt: Cheloid is a disturbance of the granulation tissue due to a hyperproliferation of the fibroblasts. These cells stop the mitogenic activity when enough extracellular matrix fills the wound crater. Collagen fibrils of the matrix start to retract anchoring the wounds edges to fibroblasts. When the collagen fibrils start to retract, fibroblasts stop to secrete the matrix (antimitogenic effect). Most of them undergo apoptosis (cell death without inducing an inflammatory reaction) and quiescence (sleeping fibroblasts), while only a small part undergo the transformation into myofibroblasts (which play a role in the last phases of the wound healing). Newly formed capillary vessels are absorbed and disappear in synchrony with the fibroblasts. Keratinocytes on the top of the healed area start to re-epithelialize the area and the process is complete: In horse, researchers have identified two orders of problems responsible for the high incidence of cheloid pathology: 1) exaggerated tension stimuli at the levels of the distal part of the horses legs, due too scarcity of muscle mass and hypodermal fat and 2) slow capacity of the keratinocytes to obtain the re-epithelialization of the granulated area maybe due to a scarcity of the signals responsible for the antimitogenic effects on fibroblasts. […]

**Q.** For C/C=C(\C)C(=O)O[C@H]1C[C@@H](OC(C)=O)[C@@]2(C(=O)OC)CO[C@H]3[C@@H](O)[C@@](C)([C@]45O[C@@]4(C)[C@@H]4C[C@H]5O[C@@H]5OC=C[C@@]54O)[C@H]4[C@]1(CO[C@]4(O)C(=O)OC)[C@@H]32 [Azadirachtin A], which class of toxicity [1] is on record?
**A.** IVth

**Q.** Which “time of healing / effectiveness in comparison of therapies” value (cheloid) does the source give for O=C(O)c1ccccc1O [Salicylic acid, salicylic acid] here?
**A.** not as effective as the therapy with the present composition
